Where two headings read alike, the source gives them in different places.
Tests used:
[1] = tested on: Acalypha indica; test: Greenhouse trial, burndown (non-crop) weed control, Acalypha indica; type: in vivo; conditions: 495 g a.i./ha
Procedure: (§1) Methodology: Greenhouse trials were conducted to evaluate the efficacy of the L-glufosinate on broad spectrum weeds at non-crop stage (burndown application).
(§2) The soil used was medium black soil. All treatments were in 3 replications per treatment with a spray volume of about 150 L/ha.
(§3) The percentage efficacy was calculated after 10 and 15 days of application (DAA). The herbicidal composition used was L-glufosinate (SL) at 150 g a.i./L and 280 g a.i./L. The application rate was 495 g a.i./ha. The target weeds were Amaranthus viridis, Amaranthus spinosus, Acalypha indica, Digera arvensis, Euphorbia geniculate, Portulaca oleracea, Parthenium hysterophrous, Phyllanthus maderaspatensis and the concentration of the herbicide and the results are recorded in Table 3.

[2] = tested on: Phyllanthus maderaspatensis; test: Greenhouse trial, burndown (non-crop) weed control, Phyllanthus maderaspatensis; type: in vivo; conditions: 495 g a.i./ha
Procedure: as §1, §2, §3

[3] = tested on: Parthenium hysterophrous; test: Greenhouse trial, burndown (non-crop) weed control, Parthenium hysterophrous; type: in vivo; conditions: 495 g a.i./ha
Procedure: as §1, §2
(§4) The percentage efficacy was calculated after 10 and 15 days of application (DAA). The herbicidal composition used was L-glufosinate (SL) at 150 g a.i./L. The application rate was 495 g a.i./ha. The target weeds were Amaranthus virids, A. spinosus, C. Album, E. geniculate, P. oleracea, P. hysterophrous, Brachiaria spp., D. retroflexa, E. colonum and the concentration of the herbicide and the results are recorded in Table 2.
as §3

[4] = tested on: C. Album; test: Greenhouse trial, burndown (non-crop) weed control, C. Album; type: in vivo; conditions: Example 2, SL 150 g a.i./L, 495 g a.i./ha
Procedure: as §1, §2, §4

[5] = tested on: Dinebra retroflexa; test: Greenhouse trial, burndown (non-crop) weed control, Dinebra retroflexa; type: in vivo; conditions: 495 g a.i./ha
Procedure: as §1, §2, §4
(§5) The percentage efficacy was calculated after 10 and 15 days of application (DAA). The herbicidal composition used was L-glufosinate (SL) at 150 g a.i./L and 280 g a.i./L. The application rate was 495 g a.i./ha. The target weeds were Brachiaria spp., Dinebra retroflexa, Echonochloa colonum and the concentration of the herbicide and the results are recorded in Table 4.

[6] = tested on: Amaranthus spinosus; test: Greenhouse trial, burndown (non-crop) weed control, Amaranthus spinosus; type: in vivo; conditions: 495 g a.i./ha
Procedure: as §1, §2, §4, §3

[7] = tested on: Euphorbia geniculate; test: Greenhouse trial, burndown (non-crop) weed control, Euphorbia geniculate; type: in vivo; conditions: for % Control after 10 DAA: Example 1; for % Control: 495 g a.i./ha
Procedure: as §1, §2
(§6) The percentage efficacy was calculated after 10 days of application (DAA). The target weeds were Amaranthus viridis, E. geniculate, P. oleracea, Brachiaria spp. and the concentration of the herbicide and the results are recorded in Table 1.
as §4, §3

[8] = tested on: plants; conditions: background statement; cited from earlier work
[9] = tested on: Portulaca oleracea; test: Greenhouse trial, burndown (non-crop) weed control, Portulaca oleracea; type: in vivo; conditions: 495 g a.i./ha
Procedure: as §1, §2, §4, §3

[10] = tested on: Brachiaria spp.; test: Greenhouse trial, burndown (non-crop) weed control, Brachiaria spp.; type: in vivo; conditions: for % Control: 495 g a.i./ha
Procedure: as §1, §2, §6, §4, §5

[11] = tested on: Digera arvensis; test: Greenhouse trial, burndown (non-crop) weed control, Digera arvensis; type: in vivo; conditions: 495 g a.i./ha
Procedure: as §1, §2, §3

[12] = tested on: glutamine synthetase (GS); conditions: role: inhibitor, GS of bacteria and plants, cited from earlier work
[13] = tested on: Amaranthus viridis; test: Greenhouse trial, burndown (non-crop) weed control, Amaranthus viridis; type: in vivo; conditions: for % Control: 495 g a.i./ha
Procedure: as §1, §2, §6, §4, §3

[14] = tested on: E. colonum; test: Greenhouse trial, burndown (non-crop) weed control, E. colonum; type: in vivo; conditions: Example 2, SL 150 g a.i./L, 495 g a.i./ha
Procedure: as §1, §2, §4

[15] = Example 3, SL 150 g a.i./L, 10 DAA
[16] = Example 3, SL 150 g a.i./L, 15 DAA
[17] = Example 3, SL 280 g a.i./L, 10 DAA
[18] = Example 3, SL 280 g a.i./L, 15 DAA
[19] = Example 1, L-glufosinate (SL) 200 g a.i./L, rate 150 g a.i./ha, 10 DAA
[20] = Example 1, L-glufosinate (SL) 200 g a.i./L, rate 165 g a.i./ha, 10 DAA
[21] = Example 1, L-glufosinate (SL) 200 g a.i./L, rate 200 g a.i./ha, 10 DAA
[22] = Example 1, L-glufosinate (SL) 200 g a.i./L, rate 220 g a.i./ha, 10 DAA
[23] = Example 1, L-glufosinate (SL) 280 g a.i./L, rate 150 g a.i./ha, 10 DAA
[24] = Example 1, L-glufosinate (SL) 280 g a.i./L, rate 165 g a.i./ha, 10 DAA
[25] = Example 1, L-glufosinate (SL) 280 g a.i./L, rate 200 g a.i./ha, 10 DAA
[26] = Example 1, L-glufosinate (SL) 280 g a.i./L, rate 220 g a.i./ha, 10 DAA
[27] = Example 2, SL 150 g a.i./L, 10 DAA
[28] = Example 2, SL 150 g a.i./L, 15 DAA

CP(=O)(O)CC[C@H](N)C(=O)O.N [L-glufosinate, (S)-2-amino-4-(hydroxy(methyl)phosphonoyl)butanoic acid]
% Control [1, 15]: 80%
% Control [1, 16]: 100%
% Control [1, 17]: 87%
% Control [1, 18]: 100%
% Control [2, 15]: 93%
% Control [2, 16]: 100%
% Control [2, 17]: 97%
% Control [2, 18]: 97%
% Control ([3]; Example 2, SL 150 g a.i./L, 10 DAA, P. hysterophrous): 100%
% Control ([3]; Example 2, SL 150 g a.i./L, 15 DAA, P. hysterophrous): 100%
% Control ([3]; Example 3, SL 150 g a.i./L, 10 DAA, Parthenium hysterophrous): 93%
% Control ([3]; Example 3, SL 150 g a.i./L, 15 DAA, Parthenium hysterophrous): 93%
% Control ([3]; Example 3, SL 280 g a.i./L, 10 DAA, Parthenium hysterophrous): 97%
% Control ([3]; Example 3, SL 280 g a.i./L, 15 DAA, Parthenium hysterophrous): 97%
% Control ([4]; 10 DAA): 100%
% Control ([4]; 15 DAA): 100%
% Control ([5]; Example 2, SL 150 g a.i./L, 10 DAA, D. retroflexa): 100%
% Control ([5]; Example 2, SL 150 g a.i./L, 15 DAA, D. retroflexa): 100%
% Control ([5]; Example 4, SL 150 g a.i./L, 10 DAA, Dinebra retroflexa): 83%
% Control ([5]; Example 4, SL 150 g a.i./L, 15 DAA, Dinebra retroflexa): 70%
% Control ([5]; Example 4, SL 280 g a.i./L, 10 DAA, Dinebra retroflexa): 83%
% Control ([5]; Example 4, SL 280 g a.i./L, 15 DAA, Dinebra retroflexa): 70%
% Control ([6]; Example 2, SL 150 g a.i./L, 10 DAA, A. spinosus): 100%
% Control ([6]; Example 2, SL 150 g a.i./L, 15 DAA, A. spinosus): 100%
% Control ([6]; Example 3, SL 150 g a.i./L, 10 DAA, Amaranthus spinosus): 100%
% Control ([6]; Example 3, SL 150 g a.i./L, 15 DAA, Amaranthus spinosus): 100%
% Control ([6]; Example 3, SL 280 g a.i./L, 10 DAA, Amaranthus spinosus): 100%
% Control ([6]; Example 3, SL 280 g a.i./L, 15 DAA, Amaranthus spinosus): 100%
% Control after 10 DAA ([7]; L-glufosinate (SL) 200 g a.i./L, rate 150 g a.i./ha, 10 DAA, E. geniculate): 93%
% Control after 10 DAA ([7]; L-glufosinate (SL) 200 g a.i./L, rate 165 g a.i./ha, 10 DAA, E. geniculate): 95%
% Control after 10 DAA ([7]; L-glufosinate (SL) 200 g a.i./L, rate 200 g a.i./ha, 10 DAA, E. geniculate): 97%
% Control after 10 DAA ([7]; L-glufosinate (SL) 200 g a.i./L, rate 220 g a.i./ha, 10 DAA, E. geniculate): 93%
% Control after 10 DAA ([7]; L-glufosinate (SL) 280 g a.i./L, rate 150 g a.i./ha, 10 DAA, E. geniculate): 92%
% Control after 10 DAA ([7]; L-glufosinate (SL) 280 g a.i./L, rate 165 g a.i./ha, 10 DAA, E. geniculate): 90%
% Control after 10 DAA ([7]; L-glufosinate (SL) 280 g a.i./L, rate 200 g a.i./ha, 10 DAA, E. geniculate): 95%
% Control after 10 DAA ([7]; L-glufosinate (SL) 280 g a.i./L, rate 220 g a.i./ha, 10 DAA, E. geniculate): 93%
% Control ([7]; Example 2, SL 150 g a.i./L, 10 DAA, E. geniculate): 100%
% Control ([7]; Example 2, SL 150 g a.i./L, 15 DAA, E. geniculate): 100%
% Control ([7]; Example 3, SL 150 g a.i./L, 10 DAA, Euphorbia geniculate): 80%
% Control ([7]; Example 3, SL 150 g a.i./L, 15 DAA, Euphorbia geniculate): 100%
% Control ([7]; Example 3, SL 280 g a.i./L, 10 DAA, Euphorbia geniculate): 90%
% Control ([7]; Example 3, SL 280 g a.i./L, 15 DAA, Euphorbia geniculate): 100%
herbicidal activity [8]: herbicidally active
% Control ([9]; Example 2, SL 150 g a.i./L, 10 DAA, P. oleracea): 88%
% Control ([9]; Example 2, SL 150 g a.i./L, 15 DAA, P. oleracea): 82%
% Control ([9]; Example 3, SL 150 g a.i./L, 10 DAA, Portulaca oleracea): 100%
% Control ([9]; Example 3, SL 150 g a.i./L, 15 DAA, Portulaca oleracea): 100%
% Control ([9]; Example 3, SL 280 g a.i./L, 10 DAA, Portulaca oleracea): 100%
% Control ([9]; Example 3, SL 280 g a.i./L, 15 DAA, Portulaca oleracea): 100%
% Control after 10 DAA [10, 19]: 100%
% Control after 10 DAA [10, 20]: 100%
% Control after 10 DAA [10, 21]: 100%
% Control after 10 DAA [10, 22]: 100%
% Control after 10 DAA [10, 23]: 100%
% Control after 10 DAA [10, 24]: 100%
% Control after 10 DAA [10, 25]: 100%
% Control after 10 DAA [10, 26]: 100%
% Control [10, 27]: 93%
% Control [10, 28]: 100%
% Control ([10]; Example 4, SL 150 g a.i./L, 10 DAA): 100%
% Control ([10]; Example 4, SL 150 g a.i./L, 15 DAA): 100%
% Control ([10]; Example 4, SL 280 g a.i./L, 10 DAA): 100%
% Control ([10]; Example 4, SL 280 g a.i./L, 15 DAA): 100%
% Control [11, 15]: 100%
% Control [11, 16]: 100%
% Control [11, 17]: 100%
% Control [11, 18]: 100%
inhibition of glutamine synthetase (GS) ([12]; listed as L-isomer of glufosinate): competitive inhibitor
inhibition of glutamine synthetase (GS) ([12]; listed as L-isomer): only the L-isomer inhibits GS
% Control after 10 DAA [13, 19]: 100%
% Control after 10 DAA [13, 20]: 100%
% Control after 10 DAA [13, 21]: 100%
% Control after 10 DAA [13, 22]: 100%
% Control after 10 DAA [13, 23]: 100%
% Control after 10 DAA [13, 24]: 100%
% Control after 10 DAA [13, 25]: 100%
% Control after 10 DAA [13, 26]: 100%
% Control [13, 27]: 100%
% Control [13, 28]: 100%
% Control [13, 15]: 100%
% Control [13, 16]: 100%
% Control [13, 17]: 100%
% Control [13, 18]: 100%
% Control ([14]; 10 DAA): 90%
% Control ([14]; 15 DAA): 90%

Source: patent publication US20260324644A1, “HERBICIDE COMPOSITION AND A METHOD FOR BURNDOWN APPLICATION” (UPL Mauritius Limited, priority 2022, published 2026)
